Measured values from patent US20240148821A1, “PHARMACEUTICAL USE OF CYCLIC PEPTIDE COMPOUND” (CHUGAI SEIYAKU KABUSHIKI KAISHA, priority 2021, published 2024).
Numbered stars: 1 amine (or outer) side, 2 acyl side, 3 side chain; on linkers, the order of the positions; unused ones are H or OH. Bridge positions count the residues as written; N and C are the ends. Square brackets hold non-standard residues; d marks the D form. Peptide text beside a SMILES is read from it. * marks the point of attachment. hPhe(3,5-F2-4-CF3) = N[C@@H](CCc1cc(F)c(C(F)(F)F)c(F)c1)C(=O)O; hPhe(3-Cl-4-CF3) = N[C@@H](CCc1ccc(C(F)(F)F)c(Cl)c1)C(=O)O; hPhe(3-F,4-CF3) = N[C@@H](CCc1ccc(C(F)(F)F)c(F)c1)C(=O)O; NMePhe(4-CF3) = CN[C@@H](Cc1ccc(C(F)(F)F)cc1)C(=O)O; NEtAsp = CCN([C@@H](CC(=O)[*:3])C(=O)[*:2])[*:1]; 3Oxa8azabicyclo(3.2.1)octane = C1CC2COCC1N2*; NMePhe(4-Me) = CN[C@@H](Cc1ccc(C)cc1)C(=O)O; X2 = COc1ccc(CC[C@H](N[*:1])C(=O)[*:2])cn1; NMedβ3hAla = C[C@H](CC(=O)[*:2])N(C)[*:1]; X77 = O=C(CN(CCN1CCC(F)(F)CC1)[*:1])[*:2]; NMeAla(cPent) = CN[C@@H](CC1CCCC1)C(=O)O; NMeGly(cPent) = CN[C@H](C(=O)O)C1CCCC1; NMeGly(cBu) = CN[C@H](C(=O)O)C1CCC1; Gly(cPent) = N[C@H](C(=O)O)C1CCCC1; NMeCha = CN[C@@H](CC1CCCCC1)C(=O)O; X81 = O=C(CN(CCOCC(F)F)[*:1])[*:2]; cisHyp = O=C(O)[C@@H]1C[C@H](O)CN1; NEtLeu = CCN[C@@H](CC(C)C)C(=O)O; NMeChg = CN[C@H](C(=O)O)C1CCCCC1; NMeI = CC[C@H](C)[C@H](NC)C(=O)O; X43 = O=C(CN(CCCCCO)[*:1])[*:2]; NMeD = CN[C@@H](CC(=O)O)C(=O)O; NMeL = CN[C@@H](CC(C)C)C(=O)O; NEtAla = CCN[C@@H](C)C(=O)O; d(β3hA) = C[C@@H](N)CC(=O)O; Azetidin(1-yl) = C1CN(*)C1; NMeS = CN[C@@H](CO)C(=O)O; Morpholide = C1CN(*)CCO1; NMeA = CN[C@@H](C)C(=O)O; NMeAib = CNC(C)(C)C(=O)O; Piperidide = C1CCN(*)CC1; dNMeA = CN[C@H](C)C(=O)O; Ac5c = NC1(C(=O)O)CCCC1; Aze = O=C(O)[C@@H]1CCN1; Ethyl(2-OH) = OCC*; Sar = CNCC(=O)O; Propyl = CCC*

target: protein-protein interaction between Kras and SOS1 (biotin-tagged human Kras loaded with GDP, His-tagged human SOS1) (Homo sapiens (Human), UniProt P01116, G12D); test: Protein-protein interaction inhibition between Kras and SOS1 (KrasG12D-SOS PPI) using AlphaScreen; type: biochemical; details: AlphaScreen; biotin-tagged human Kras loaded with GDP, His-tagged human SOS1; read-out: KRAS G12D-SOS PPI IC50;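 note: kras produced in E. coli, Ni-coupled donor beads and streptavidin acceptor beads, excitation 680 nm with emission detected at 520–620 nm via singlet oxygen transfer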

Row | Structure (SMILES) | IC50 [nM]
1 | CC[C@H](C)[C@@H]1NC(=O)[C@H](CC2CCCC2)N(C)C(=O)C[C@@H](C(=O)N2CCC2)N(C)C(=O)[C@H](C2CCCC2)N(C)C(=O)C2(CCCC2)NC(=O)[C@@H]2CCCN2C(=O)[C@H](CCc2ccc(C(F)(F)F)c(Cl)c2)NC(=O)CN(C)C(=O)[C@H](CC2CCCCC2)N(C)C(=O)[C@@H]2CCN2C(=O)[C@H](C)NC1=O [Compound 921] ([NMeAla(cPent)]IA[Aze][NMeCha][Sar][hPhe(3-Cl-4-CF3)]P[Ac5c][NMeGly(cPent)][NMeD]-{Azetidin(1-yl)}; lactam N-11) | 1.1
2 | CC[C@H](C)[C@@H]1NC(=O)[C@H](CC(C)C)N(CC)C(=O)C[C@@H](C(=O)N2CCOCC2)N(C)C(=O)[C@H](C2CCCC2)N(C)C(=O)C2(CCCC2)NC(=O)[C@@H]2CCCN2C(=O)[C@H](CCc2ccc(C(F)(F)F)c(Cl)c2)NC(=O)CN(C)C(=O)[C@H](C2CCCC2)N(C)C(=O)[C@@H]2CCN2C(=O)[C@H](C)NC1=O [Compound 1140] ([NEtLeu]IA[Aze][NMeGly(cPent)][Sar][hPhe(3-Cl-4-CF3)]P[Ac5c][NMeGly(cPent)][NMeD]-Morpholide; lactam N-11) | 2
3 | CC[C@H](C)[C@@H]1NC(=O)[C@H](CC(C)C)N(C)C(=O)C[C@@H](C)N(C)C(=O)[C@H](CC(C)C)NC(=O)C(C)(C)N(C)C(=O)[C@H](CC(C)C)NC(=O)[C@H](CCc2ccc(C(F)(F)F)c(Cl)c2)NC(=O)[C@@H](C)N(C)C(=O)[C@H](Cc2ccc(C)cc2)N(C)C(=O)CN(C)C(=O)CN(C)C1=O [Compound 1384] (cyclo(I[Sar][Sar][NMePhe(4-Me)][dNMeA][hPhe(3-Cl-4-CF3)]L[NMeAib]L[NMedβ3hAla][NMeL])) | 230
4 | CC[C@H](C)[C@@H]1NC(=O)[C@H](CC(C)C)N(C)C(=O)C[C@@H](C(=O)N2CCCCC2)N(C)C(=O)[C@H](C2CCCCC2)N(C)C(=O)C2(CCCC2)NC(=O)CN(CCOCC(F)F)C(=O)[C@H](CCc2ccc(C(F)(F)F)c(Cl)c2)NC(=O)CN(C)C(=O)[C@H](CC2CCCCC2)N(C)C(=O)CN(C)C(=O)CN(C)C1=O [Compound 2036] ([NMeL]I[Sar][Sar][NMeCha][Sar][hPhe(3-Cl-4-CF3)][X81][Ac5c][NMeChg][NMeD]-Piperidide; lactam N-11 (inferred); C-terminus assumed) | 1.1
5 | CC[C@H](C)[C@@H]1NC(=O)[C@H](C)N(C)C(=O)C[C@@H](C)NC(=O)[C@H](C2CCCC2)N(C)C(=O)C2(CCCC2)NC(=O)[C@@H]2CCCN2C(=O)[C@H](CCc2ccc(C(F)(F)F)c(Cl)c2)NC(=O)[C@@H](C)N(C)C(=O)[C@H](Cc2ccc(C(F)(F)F)cc2)N(C)C(=O)[C@@H]2CCN2C(=O)[C@H](C)N(C)C1=O [Compound 1497] (cyclo([Ac5c][NMeGly(cPent)][d(β3hA)][NMeA]I[NMeA][Aze][NMePhe(4-CF3)][dNMeA][hPhe(3-Cl-4-CF3)]P)) | 25
6 | CCCOC[C@H]1C(=O)N(C)CC(=O)N[C@@H](CCc2cc(F)c(C(F)(F)F)c(F)c2)C(=O)N2CCC[C@H]2C(=O)NC2(CCCC2)C(=O)N(C)[C@@H](C2CCCC2)C(=O)N(C)[C@H](C(=O)N2C3CCC2COC3)CC(=O)N(C)[C@@H](CC(C)C)C(=O)N[C@@H]([C@@H](C)CC)C(=O)N(C)[C@@H](C)C(=O)N2CC[C@H]2C(=O)N1C [Compound 1355] ([NMeL]I[NMeA][Aze][NMeS](Propyl)[Sar][hPhe(3,5-F2-4-CF3)]P[Ac5c][NMeGly(cPent)][NMeD]-{3Oxa8azabicyclo(3.2.1)octane}; lactam N-11) | 3.2
7 | CC[C@H](C)[C@@H]1NC(=O)[C@H](CC(C)C)N(C)C(=O)C[C@@H](C(=O)N2CCCCC2)N(CC)C(=O)[C@H](C2CCCC2)N(C)C(=O)C2(CCCC2)NC(=O)[C@@H]2CCCN2C(=O)[C@H](CCc2ccc(C(F)(F)F)c(Cl)c2)NC(=O)CN(C)C(=O)[C@H](C2CCC2)N(C)C(=O)[C@@H]2CCN2C(=O)[C@H](C)N(C)C1=O [Compound 1047] ([NMeL]I[NMeA][Aze][NMeGly(cBu)][Sar][hPhe(3-Cl-4-CF3)]P[Ac5c][NMeGly(cPent)][NEtAsp]-Piperidide; lactam N-11) | 6.3
8 | CC[C@H](C)[C@@H]1NC(=O)[C@H](CC(C)C)N(C)C(=O)C[C@@H](C(=O)N2CCCCC2)N(C)C(=O)[C@H](C2CCCCC2)N(C)C(=O)C2(CCCC2)NC(=O)[C@@H]2C[C@H](OCCO)CN2C(=O)[C@H](CCc2ccc(C(F)(F)F)c(Cl)c2)NC(=O)CN(C)C(=O)[C@H](CC2CCCCC2)N(C)C(=O)CN(C)C(=O)CN(C)C1=O [Compound 2117, (3S,9S,18S,21S,25S,28S,34S,36S)-3-[2-[3-chloro-4-(trifluoromethyl)phenyl]ethyl]-28-cyclohexyl-9-(cyclohexylmethyl)-36-(2-hydroxyethoxy)-21-isobutyl-7,10,13,16,22,26,29-heptamethyl-18-[(1S)-1-methylpropyl]-25-(piperidine-1-carbonyl)spiro[1,4,7,10,13,16,19,22,26,29,32-undecazabicyclo[32.3.0]heptatriacontane-31,1′-cyclopentane]-2,5,8,11,14,17,20,23,27,30,33-undecone] ([NMeL]I[Sar][Sar][NMeCha][Sar][hPhe(3-Cl-4-CF3)][cisHyp](Ethyl(2-OH))[Ac5c][NMeChg][NMeD]-Piperidide; lactam N-11) | 0.41
9 | CC[C@H](C)[C@@H]1NC(=O)[C@H](CC(C)C)N(C)C(=O)C[C@@H](C)NC(=O)[C@H](C2CCCC2)N(C)C(=O)C2(CCCC2)NC(=O)[C@@H]2CCCN2C(=O)[C@H](CCc2ccc(C(F)(F)F)c(Cl)c2)NC(=O)CN(C)C(=O)[C@H](Cc2ccc(C)cc2)N(C)C(=O)[C@@H]2CCN2C(=O)[C@H](C)N(CC)C1=O [Compound 1023] (cyclo([Ac5c][NMeGly(cPent)][d(β3hA)][NMeL]I[NEtAla][Aze][NMePhe(4-Me)][Sar][hPhe(3-Cl-4-CF3)]P)) | 20
10 | CC[C@H](C)[C@@H]1NC(=O)[C@H](CC(C)C)N(C)C(=O)C[C@@H](C(=O)N2CCCCC2)N(C)C(=O)[C@H](C2CCCCC2)N(C)C(=O)C2(CCCC2)NC(=O)CN(CCN2CCC(F)(F)CC2)C(=O)[C@H](CCc2ccc(C(F)(F)F)c(Cl)c2)NC(=O)CN(C)C(=O)[C@H](CC2CCCCC2)N(C)C(=O)CN(C)C(=O)CN(C)C1=O [Compound 2022] ([NMeL]I[Sar][Sar][NMeCha][Sar][hPhe(3-Cl-4-CF3)][X77][Ac5c][NMeChg][NMeD]-Piperidide; lactam N-11) | 3.8
11 | CC[C@H](C)[C@@H]1NC(=O)[C@H](CC(C)C)N(C)C(=O)C[C@@H](C(=O)N2CCCCC2)N(C)C(=O)[C@H](C2CCCC2)N(C)C(=O)C2(CCCC2)NC(=O)[C@@H]2CCCN2C(=O)[C@H](CCc2ccc(C(F)(F)F)c(Cl)c2)NC(=O)CN(C)C(=O)[C@H](C2CCC2)N(C)C(=O)[C@@H]2CCN2C(=O)[C@H](C)N(C)C1=O [Compound 127] ([NMeL]I[NMeA][Aze][NMeGly(cBu)][Sar][hPhe(3-Cl-4-CF3)]P[Ac5c][NMeGly(cPent)][NMeD]-Piperidide; lactam N-11) | 0.43
12 | CCCOC[C@H]1C(=O)N(C)CC(=O)N[C@@H](CCc2ccc(C(F)(F)F)c(F)c2)C(=O)N2CCC[C@H]2C(=O)NC2(CCCC2)C(=O)N(C)[C@@H]([C@@H](C)CC)C(=O)N(C)[C@H](C(=O)N2CCCCC2)CC(=O)N(C)[C@@H](CC(C)C)C(=O)N[C@@H]([C@@H](C)CC)C(=O)N(C)[C@@H](C)C(=O)N2CC[C@H]2C(=O)N1C [Compound 236] ([NMeL]I[NMeA][Aze][NMeS](Propyl)[Sar][hPhe(3-F,4-CF3)]P[Ac5c][NMeI][NMeD]-Piperidide; lactam N-11) | 8.5
13 | CC[C@H](C)[C@@H]1NC(=O)[C@H](CC(C)C)N(C)C(=O)C[C@@H](C(=O)N2CCCCC2)N(C)C(=O)[C@H](C2CCCC2)N(C)C(=O)C2(CCCC2)NC(=O)[C@@H]2CCCN2C(=O)[C@H](CCc2ccc(OC)nc2)NC(=O)CN(C)C(=O)[C@H](CC2CCCCC2)N(C)C(=O)[C@@H]2CCN2C(=O)[C@H](C)N(C)C1=O [Compound 2084] ([NMeL]I[NMeA][Aze][NMeCha][Sar][X2]P[Ac5c][NMeGly(cPent)][NMeD]-Piperidide; lactam N-11 (inferred); C-terminus assumed) | 130
14 | CC[C@H](C)[C@@H]1NC(=O)[C@H](CC(C)C)N(C)C(=O)C[C@@H](C(=O)N2CCCCC2)N(C)C(=O)[C@H](C2CCCCC2)N(C)C(=O)C2(CCCC2)NC(=O)CN(CCCCCO)C(=O)[C@H](CCc2ccc(C(F)(F)F)c(Cl)c2)NC(=O)CN(C)C(=O)[C@H](CC2CCCCC2)N(C)C(=O)CN(C)C(=O)CN(C)C1=O [Compound 2049, (11S,17S,26S,29S,33S,36S)-11-[2-[3-chloro-4-(trifluoromethyl)phenyl]ethyl]-36-cyclohexyl-17-(cyclohexylmethyl)-9-(5-hydroxypentyl)-29-isobutyl-15,18,21,24,30,34,37-heptamethyl-26-[(1S)-1-methylpropyl]-33-(piperidine-1-carbonyl)-6,9,12,15,18,21,24,27,30,34,37-undecazaspiro[4.33]octatriacontane-7,10,13,16,19,22,25,28,31,35,38-undecone] ([NMeL]I[Sar][Sar][NMeCha][Sar][hPhe(3-Cl-4-CF3)][X43][Ac5c][NMeChg][NMeD]-Piperidide; lactam N-11) | 4
15 | CC[C@H](C)[C@@H]1NC(=O)[C@H](CC(C)C)N(C)C(=O)C[C@@H](C)NC(=O)[C@H](C2CCCC2)N(C)C(=O)C2(CCCC2)NC(=O)[C@@H]2CCCN2C(=O)[C@H](CCc2ccc(C(F)(F)F)c(Cl)c2)NC(=O)[C@@H](C)N(C)C(=O)[C@H](CC2CCCCC2)N(C)C(=O)[C@@H]2CCN2C(=O)CN(C)C1=O [Compound 1531] (cyclo([Ac5c][NMeGly(cPent)][d(β3hA)][NMeL]I[Sar][Aze][NMeCha][dNMeA][hPhe(3-Cl-4-CF3)]P)) | 230
16 | CC[C@H](C)[C@@H]1NC(=O)[C@H](CC(C)C)N(C)C(=O)C[C@@H](C)NC(=O)[C@H](C2CCCC2)NC(=O)C2(CCCC2)NC(=O)[C@@H]2CCCN2C(=O)[C@H](CCc2ccc(C(F)(F)F)c(Cl)c2)NC(=O)CN(C)C(=O)[C@H](Cc2ccc(C)cc2)N(C)C(=O)[C@@H]2CCN2C(=O)[C@H](C)N(C)C1=O [Compound 1213] (cyclo([Ac5c][Gly(cPent)][d(β3hA)][NMeL]I[NMeA][Aze][NMePhe(4-Me)][Sar][hPhe(3-Cl-4-CF3)]P)) | 17
